{
  "source": "patent US8921382B2",
  "about": "“Thiazolo[5,4-d] pyrimidines and their use as agrochemicals” (Dow AgroSciences, LLC., priority 2010, dated 2014)",
  "key": {"[1]": {"tested_on": "Puccinia recondita tritici", "test": "Leaf Rust of Wheat foliar spray test, inoculated one day after treatment", "format": "in vivo", "conditions": "applied to foliage at 200 ppm, wheat plants, read-out: Activity against Fungal Diseases PUCCRT (percent disease control)", "method": "(§1) Fungicide activity data are the level (in percent) at which the given disease was controlled when the given compound was applied to the foliage of the plants at 200 ppm. In a few cases (noted in the table) the compound was applied to the plants at 25 ppm or 3 ppm. The plants were inoculated with the fungus one day after treatment. ***=80-100% control; **=50-79% control; *=0-49% control. […] The activity of the compounds as effective fungicides was determined by applying the compounds to plants and observing control of fungal disease. […] All plants were inoculated with spores of the fungus the day after treatment, then incubated in an environment conducive to disease development. Disease severity was evaluated 4 to 25 days (d) later, depending on the speed of disease development. The following experiments were performed in the laboratory to determine the fungicidal efficacy of the compounds of the invention. […] Each pot contained 3-8 seedlings. These plants were sprayed until wet with the formulated test compounds. On the following day, the leaves were inoculated with an aqueous spore suspension of Puccinia recondita tritici and the plants were kept in high humidity overnight to permit spores to germinate and infect the leaf. The plants were then transferred to a greenhouse until disease developed on untreated control plants. […] The effectiveness of the test compounds at controlling disease when sprayed on leaves was determined by assessing the severity of disease on treated plants, then converting the severity to percent control based on the level of disease on untreated, inoculated plants."}, "[2]": {"tested_on": "Pyricularia oryzae", "test": "whole plant or invertebrate", "format": "in vivo", "conditions": "foliar, read-out: Activity against Fungal Diseases PYRIOR (percent disease control)"}, "[3]": {"tested_on": "Septoria tritici", "test": "Septoria Blotch of Wheat foliar spray test, inoculated one day after treatment", "format": "in vivo", "conditions": "Zymoseptoria tritici, wheat plants, read-out: Activity against Fungal Diseases SEPTTR (percent disease control); for pest or weed control at 200 ppm: applied to foliage at 200 ppm; for pest or weed control at 25 ppm: Tested at 25 ppm", "method": "as §1, with “3-10” for “3-8”, “compound.” for “compounds.”, “Septoria” for “Puccinia recondita”, “(one day in a dark dew chamber followed by two days in a lighted dew chamber)” for “overnight”"}, "[4]": {"tested_on": "Pseudoperonospora cubensis", "test": "Cucumber Downy Mildew foliar spray test, inoculated one day after treatment", "format": "in vivo", "conditions": "applied to foliage at 200 ppm, cucumber plants, read-out: Activity against Fungal Diseases PSPECU (percent disease control)", "method": "Fungicide activity data are the level (in percent) at which the given disease was controlled when the given compound was applied to the foliage of the plants at 200 ppm. In a few cases (noted in the table) the compound was applied to the plants at 25 ppm or 3 ppm. The plants were inoculated with the fungus one day after treatment. ***=80-100% control; **=50-79% control; *=0-49% control. […] The activity of the compounds as effective fungicides was determined by applying the compounds to plants and observing control of fungal disease. […] All plants were inoculated with spores of the fungus the day after treatment, then incubated in an environment conducive to disease development. Disease severity was evaluated 4 to 25 days (d) later, depending on the speed of disease development. The following experiments were performed in the laboratory to determine the fungicidal efficacy of the compounds of the invention. Cucumber Downy Mildew (causal agent Pseudoperonospora cubensis; Bayer code […]): Cucumber plants (variety 'Bush Champion' or 'Bush Pickle Hybrid') were grown from seed in a soil-less peat-based potting mixture (Metromix) until the first true leaf was 20-80% expanded. Each pot contained 1 seedling. These plants were sprayed until wet with the formulated test compound. On the following day, the leaves were inoculated with an aqueous suspension of downy mildew sporangia and the plants were kept in high humidity for one day to permit sporangia to germinate and infect the leaf. The plants were then incubated in a growth chamber until disease developed on untreated control plants. […] The effectiveness of the test compounds at controlling disease when sprayed on leaves was determined by assessing the severity of disease on treated plants, then converting the severity to percent control based on the level of disease on untreated, inoculated plants."}, "[5]": {"tested_on": "Caenorhabditis elegans", "conditions": "Application rate 10 micrograms per milliliter agar; evaluated after 24 h at 20° C.", "protocol": "The activity of the compounds against Caenorhabditis elegans was determined by dissolving compounds in DMSO, then applying them to petri dishes containing Nematode Growth Medium agar to a final concentration of 10 micrograms (μg) compound per milliliter agar. Escherichia coli bacteria were grown on the plates to provide a food source for the larvae of Caenorhabditis elegans. The bacteria were heat-killed at 65° C. before compounds were added to the plates.\nThe plates with compound and heat-killed bacteria were infested with 10 microliter (μL) drops containing eggs from wild-type Caenorhabditis elegans worms. Adult worms were dissolved in potassium hydroxide (KOH) and bleach and washed in Ringers solution to generate the egg suspension. Each compound was screened with approximately 400 eggs, divided between two petri dishes. Egg hatching was evaluated after 24 h at 20° C. Mortality was averaged over the two plates."}},
  "data": [
    {"compound": "COc1cc(CCNc2ncnc3scnc23)ccc1O", "note": "[Compound 12, 2-methoxy-4-[2-(thiazolo[5,4-d]pyrimidin-7-ylamino)-ethyl]-phenol]", "values": [
      {"measurement": "melting point", "result": "151 to 154", "unit": "°C"}
    ]},
    {"compound": "COc1cc(CCNc2ncnc3scnc23)ccc1Oc1cc(C(F)(F)F)cc[n+]1[O-]", "note": "[Compound 42, {2-[3-methoxy-4-(1-oxy-4-trifluoromethylpyridin-2-yloxy)-phenyl]-ethyl}-thiazolo[5,4-d]pyrimidin-7-ylamine]", "values": [
      {"measurement": "pest or weed control at 200 ppm", "setting": "[1]", "result": "80 to 100", "unit": "%"},
      {"measurement": "pest or weed control at 200 ppm", "setting": "[2]", "result": "80 to 100", "unit": "%"},
      {"measurement": "pest or weed control at 200 ppm", "setting": "[3]", "result": "80 to 100", "unit": "%"},
      {"measurement": "pest or weed control at 200 ppm", "setting": "[4]", "result": "80 to 100", "unit": "%"}
    ]},
    {"compound": "FC(F)(F)c1ccncc1Oc1ccc(CCNc2ncnc3scnc23)cc1", "note": "[Compound 43, thiazolo[5,4-d]pyrimidin-7-yl-{2-[4-(4-trifluoromethylpyridin-3-yloxy)-phenyl]-ethyl}-amine]", "values": [
      {"measurement": "pest or weed control at 200 ppm", "setting": "[1]", "result": "80 to 100", "unit": "%"},
      {"measurement": "pest or weed control at 200 ppm", "setting": "[2]", "result": "80 to 100", "unit": "%"},
      {"measurement": "pest or weed control at 200 ppm", "setting": "[3]", "result": "80 to 100", "unit": "%"},
      {"measurement": "pest or weed control at 200 ppm", "setting": "[4]", "result": "80 to 100", "unit": "%"}
    ]},
    {"compound": "c1ccc2c(c1)oc1ccc(CCNc3ncnc4scnc34)cc12", "note": "[Compound 44, (2-dibenzofuran-2-ylethyl)-thiazolo[5,4-d]pyrimidin-7-yl-amine]", "values": [
      {"measurement": "pest or weed control at 200 ppm", "setting": "[1]", "result": "0 to 49", "unit": "%"},
      {"measurement": "pest or weed control at 200 ppm", "setting": "[2]", "result": "80 to 100", "unit": "%"},
      {"measurement": "pest or weed control at 200 ppm", "setting": "[3]", "result": "50 to 79", "unit": "%"},
      {"measurement": "pest or weed control at 200 ppm", "setting": "[4]", "result": "80 to 100", "unit": "%"}
    ]},
    {"compound": "Cc1cc(CCNc2ncnc3scnc23)ccc1Oc1nc(C(F)(F)F)c(Cl)s1", "note": "[Compound 46, {2-[4-(5-chloro-4-trifluoromethylthiazol-2-yloxy)-3-methylphenyl]-ethyl}-thiazolo[5,4-d]pyrimidin-7-ylamine]", "values": [
      {"measurement": "pest or weed control at 200 ppm", "setting": "[1]", "result": "80 to 100", "unit": "%"},
      {"measurement": "pest or weed control at 200 ppm", "setting": "[2]", "result": "80 to 100", "unit": "%"},
      {"measurement": "pest or weed control at 200 ppm", "setting": "[3]", "result": "80 to 100", "unit": "%"},
      {"measurement": "pest or weed control at 200 ppm", "setting": "[4]", "result": "80 to 100", "unit": "%"}
    ]},
    {"compound": "Cc1cc(CCNc2ncnc3scnc23)ccc1Oc1c(Cl)cnc(C(F)(F)F)c1Cl", "note": "[Compound 49, {2-[4-(3,5-dichloro-2-trifluoromethylpyridin-4-yloxy)-3-methylphenyl]-ethyl}-thiazolo[5,4-d]pyrimidin-7-ylamine]", "values": [
      {"measurement": "pest or weed control at 200 ppm", "setting": "[1]", "result": "50 to 79", "unit": "%"},
      {"measurement": "pest or weed control at 200 ppm", "setting": "[2]", "result": "80 to 100", "unit": "%"},
      {"measurement": "pest or weed control at 25 ppm", "setting": "[3]", "result": "0 to 49", "unit": "%"},
      {"measurement": "pest or weed control at 200 ppm", "setting": "[4]", "result": "50 to 79", "unit": "%"}
    ]},
    {"compound": "FC(F)(F)c1cc(Oc2ccc(CCNc3ncnc4scnc34)cc2)ncn1", "note": "[Compound 52, thiazolo[5,4-d]pyrimidin-7-yl-{2-[4-(6-trifluoromethylpyrimidin-4-yloxy)-phenyl]-ethyl}-amine]", "values": [
      {"measurement": "pest or weed control at 200 ppm", "setting": "[1]", "result": "80 to 100", "unit": "%"},
      {"measurement": "pest or weed control at 200 ppm", "setting": "[2]", "result": "80 to 100", "unit": "%"},
      {"measurement": "pest or weed control at 25 ppm", "setting": "[3]", "result": "80 to 100", "unit": "%"},
      {"measurement": "pest or weed control at 200 ppm", "setting": "[4]", "result": "80 to 100", "unit": "%"}
    ]},
    {"compound": "Cc1cc(CCNc2ncnc3scnc23)ccc1Oc1cc(C(F)(F)F)ncn1", "note": "[Compound 53, {2-[3-methyl-4-(6-trifluoromethylpyrimidin-4-yloxy)-phenyl]-ethyl}-thiazolo[5,4-d]pyrimidin-7-ylamine]", "values": [
      {"measurement": "pest or weed control at 200 ppm", "setting": "[1]", "result": "80 to 100", "unit": "%"},
      {"measurement": "pest or weed control at 200 ppm", "setting": "[2]", "result": "80 to 100", "unit": "%"},
      {"measurement": "pest or weed control at 25 ppm", "setting": "[3]", "result": "80 to 100", "unit": "%"},
      {"measurement": "pest or weed control at 200 ppm", "setting": "[4]", "result": "80 to 100", "unit": "%"}
    ]},
    {"compound": "Cc1cc(Oc2cc(C(F)(F)F)ccn2)ccc1CCNc1ncnc2scnc12", "note": "[Compound 59, {2-[2-methyl-4-(4-trifluoromethylpyridin-2-yloxy)-phenyl]-ethyl}-thiazolo[5,4-d]pyrimidin-7-ylamine]", "values": [
      {"measurement": "pest or weed control at 200 ppm", "setting": "[1]", "result": "80 to 100", "unit": "%"},
      {"measurement": "pest or weed control at 200 ppm", "setting": "[2]", "result": "80 to 100", "unit": "%"},
      {"measurement": "pest or weed control at 200 ppm", "setting": "[3]", "result": "80 to 100", "unit": "%"},
      {"measurement": "pest or weed control at 200 ppm", "setting": "[4]", "result": "80 to 100", "unit": "%"}
    ]},
    {"compound": "Fc1cc(C(F)(F)F)cnc1Oc1ccc(CCNc2ncnc3scnc23)cc1", "note": "[Compound 61, {2-[4-(3-fluoro-5-trifluoromethylpyridin-2-yloxy)-phenyl]-ethyl}-thiazolo[5,4-d]pyrimidin-7-ylamine]", "values": [
      {"measurement": "pest or weed control at 200 ppm", "setting": "[1]", "result": "80 to 100", "unit": "%"},
      {"measurement": "pest or weed control at 200 ppm", "setting": "[2]", "result": "80 to 100", "unit": "%"},
      {"measurement": "pest or weed control at 25 ppm", "setting": "[3]", "result": "50 to 79", "unit": "%"},
      {"measurement": "pest or weed control at 200 ppm", "setting": "[4]", "result": "80 to 100", "unit": "%"}
    ]},
    {"compound": "Cc1cc(C(F)(F)F)cc(Oc2ccc(CCNc3ncnc4scnc34)cc2)n1", "note": "[Compound 62, {2-[4-(6-methyl-4-trifluoromethylpyridin-2-yloxy)-phenyl]-ethyl}-thiazolo[5,4-d]pyrimidin-7-ylamine]", "values": [
      {"measurement": "pest or weed control at 200 ppm", "setting": "[1]", "result": "80 to 100", "unit": "%"},
      {"measurement": "pest or weed control at 200 ppm", "setting": "[2]", "result": "80 to 100", "unit": "%"},
      {"measurement": "pest or weed control at 200 ppm", "setting": "[3]", "result": "80 to 100", "unit": "%"},
      {"measurement": "pest or weed control at 200 ppm", "setting": "[4]", "result": "80 to 100", "unit": "%"}
    ]},
    {"compound": "ivermectin", "values": [
      {"measurement": "Percent mortality", "setting": "[5]", "result": 95, "unit": "%"}
    ]}
  ]
}
